Values quoted from earlier work in patent publication US20150051382A1 (CARDIOPEP PHARMA GMBH, priority 2010, published 2015).

Tests used:
[1] = tested on: patients with chronic congestive heart failure
[2] = tested on: patients with moderate asthma affliction; conditions: brief infusion; healthy and diseased subjects
[3] = tested on: patients with chronic congestive heart failure; conditions: 15 ng/kg/min, 10-hour infusion

Substance: urodilatin
- changes of the baseline in pulmonary capillary wedge pressure (PCWP) ([1]; 15+30 ng/kg/min, compared with the placebo group): significant reductions
- changes of the cardiac index (CI) ([1]; 15 and 30 ng/kg/min): significant increase
- cardiac index (CI), reversal of effect ([1]; after 6 to 8 hours of infusion): partial drop of CI
- pulmonary capillary wedge pressure (PCWP), reversal of effect ([1]; after 6 to 8 hours of infusion): slight increase of PCWP
- symptoms, morbidity and mortality ([1]; all doses): significantly improved
- acute survival rate and hospital dwelling time ([1]; human, in vivo): significantly and relevantly influenced
- effect as compared to other natriuretic peptides, such as ANP (dogs): better effect
- effect on bronchoconstriction [2]: temporary biological effect
- central venous pressure (CVP) ([3]; after 5 hours of infusion): increases slightly
- urine flow ([3]; after 8 hours of infusion): loss of action
